Measured values reported in US20200216439A1, “HETERO-1,5,6,7-TETRAHYDRO-4H-INDOL-4-ONES” (BAYER PHARMA AKTIENGESELLSCHAFT, priority 2015, published 2020).

molecular target: T1, catalytic domain of human Bub1 (amino acids 704-1085) (Homo sapiens, UniProt O43683); assay: Bub1 kinase assay (TR-FRET); type: biochemical; details: TR-FRET; ATP 10 μM, peptide substrate 1 μM; 60 min at 22° C.; average or median if tested more than once; read-out: Inhibition of Bub1 kinase IC50
T1 construct: catalytic domain of human Bub1 (amino acids 704-1085); His6 (N); made in house; host or cells: Hi5 insect cells
In short: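 Human Bub1 catalytic domain (704-1085, His6-tagged, Hi5-expressed, ~200 ng/mL) preincubated with compound 15 min at 22 °C, then reacted 60 min at 22 °C with 10 μM ATP and 1 μM biotinylated peptide substrate, pH 7.5. EDTA stop; TR-FRET 665/620 ratio; IC50 from 4-parameter fit, 11 concentrations in duplicate.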

T1 sequence (O43683 704-1085): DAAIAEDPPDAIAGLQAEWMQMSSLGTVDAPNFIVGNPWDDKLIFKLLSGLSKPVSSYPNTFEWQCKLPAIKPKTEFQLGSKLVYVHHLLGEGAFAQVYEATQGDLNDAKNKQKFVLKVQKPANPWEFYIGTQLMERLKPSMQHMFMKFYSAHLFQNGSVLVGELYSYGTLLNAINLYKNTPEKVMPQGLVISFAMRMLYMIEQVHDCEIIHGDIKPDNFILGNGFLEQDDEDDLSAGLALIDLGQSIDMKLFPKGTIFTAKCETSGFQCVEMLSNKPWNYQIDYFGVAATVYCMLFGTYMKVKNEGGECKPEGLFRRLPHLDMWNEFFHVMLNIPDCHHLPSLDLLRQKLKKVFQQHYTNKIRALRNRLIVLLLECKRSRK

SMILES | IC50 [µM]
CC(C)(C)SC(=O)N1CC(=O)c2c([nH]c(-c3ccnc(NC(=O)[C@@H]4C[C@@H]4F)c3)c2Nc2ccccc2)C1 [Example 308, S-tert-Butyl 3-anilino-2-[2-({[(1S,2S)-2-fluorocyclopropyl]carbonyl}amino)pyridin-4-yl]-4-oxo-1,4,5,7-tetrahydro-6H-pyrrolo[2,3-c]pyridine-6-carbothioate] | 0.031
CC(=O)Nc1cc(-c2[nH]c3c(c2Nc2ccccn2)C(=O)CN(C(=O)OC(C)(C)C)C3)ccn1 [Example 310, tert-Butyl 2-(2-acetamidopyridin-4-yl)-4-oxo-3-(pyridin-2-ylamino)-1,4,5,7-tetrahydro-6H-pyrrolo[2,3-c]pyridine-6-carboxylate] | 0.079
CC(=O)Nc1cc(-c2[nH]c3c(c2Nc2ccc(F)cc2)C(=O)CN(S(C)(=O)=O)C3)ccn1 [Example 311, N-(4-(3-[(4-Fluorophenyl)amino]-6-(methylsulfonyl)-4-oxo-4,5,6,7-tetrahydro-1H-pyrrolo[2,3-c]pyridin-2-yl)pyridin-2-yl)acetamide] | 0.004
CC(=O)Nc1cc(-c2[nH]c3c(c2Nc2ccc(F)cc2)C(=O)CN(C(C)=O)C3)ccn1 [Example 312, N-(4-(6-Acetyl-3-[(4-fluorophenyl)amino]-4-oxo-4,5,6,7-tetrahydro-1H-pyrrolo[2,3-c]pyridin-2-yl)pyridin-2-yl)acetamide] | 0.016
CNS(=O)(=O)N1CC(=O)c2c([nH]c(-c3ccnc(NC(C)=O)c3)c2Nc2ccc(F)cc2)C1 [Example 315, N-(4-(3-[(4-Fluorophenyl)amino]-6-(methylsulfamoyl)-4-oxo-4,5,6,7-tetrahydro-1H-pyrrolo[2,3-c]pyridin-2-yl)pyridin-2-yl)acetamide] | 0.004
CC(=O)Nc1cc(-c2[nH]c3c(c2Nc2ccc(F)cc2)C(=O)CN(C(=O)OC(C)C)C3)ccn1 [Example 316, Propan-2-yl 2-[2-(acetylamino)pyridin-4-yl]-3-[(4-fluorophenyl)amino]-4-oxo-1,4,5,7-tetrahydro-6H-pyrrolo[2,3-c]pyridine-6-carboxylate] | 0.025
CC(=O)Nc1cc(-c2[nH]c3c(c2Nc2ccc(C)cc2)C(=O)CN(C(=O)N(C)C)C3)ccn1 [Example 317, 2-[2-(Acetylamino)pyridin-4-yl]-N,N-dimethyl-3-[(4-methylphenyl)amino]-4-oxo-1,4,5,7-tetrahydro-6H-pyrrolo[2,3-c]pyridine-6-carboxamide] | 0.05
CNC(=O)N1CC(=O)c2c([nH]c(-c3ccnc(NC(C)=O)c3)c2Nc2ccc(C)cc2)C1 [Example 320, 2-[2-(Acetylamino)pyridin-4-yl]-N-methyl-3-[(4-methylphenyl)amino]-4-oxo-1,4,5,7-tetrahydro-6H-pyrrolo[2,3-c]pyridine-6-carboxamide] | 0.178
CC(=O)Nc1cc(-c2[nH]c3c(c2Nc2ccc(C)cc2)C(=O)CN(C(=O)OC(C)C)C3)ccn1 [Example 323, Propan-2-yl 2-[2-(acetylamino)pyridin-4-yl]-3-[(4-methylphenyl)amino]-4-oxo-1,4,5,7-tetrahydro-6H-pyrrolo[2,3-c]pyridine-6-carboxylate] | 0.229

More lines, in order of falling IC50, values ahead:

IC50 [µM] | SMILES
0.192 | CC(=O)Nc1cc(-c2[nH]c3c(c2Nc2ccc(C)cc2)C(=O)CN(C(C)=O)C3)ccn1 [Example 319, N-(4-(6-Acetyl-3-[(4-methylphenyl)amino]-4-oxo-4,5,6,7-tetrahydro-1H-pyrrolo[2,3-c]pyridin-2-yl)pyridin-2-yl)acetamide]
0.113 | COC(=O)N1CC(=O)c2c([nH]c(-c3ccnc(NC(C)=O)c3)c2Nc2ccc(C)cc2)C1 [Example 321, Methyl 2-[2-(acetylamino)pyridin-4-yl]-3-[(4-methylphenyl)amino]-4-oxo-1,4,5,7-tetrahydro-6H-pyrrolo[2,3-c]pyridine-6-carboxylate]
0.041 | CNS(=O)(=O)N1CC(=O)c2c([nH]c(-c3ccnc(NC(C)=O)c3)c2Nc2ccc(C)cc2)C1 [Example 322]
0.031 | CC(=O)Nc1cc(-c2[nH]c3c(c2Nc2ccc(C)cc2)C(=O)CN(S(=O)(=O)C(C)C)C3)ccn1 [Example 318, N-(4-(3-[(4-Methylphenyl)amino]-4-oxo-(propan-2-ylsulfonyl)-1,5,6,7-tetrahydro-1H-pyrrolo[2,3-c]pyridin-2-yl)pyridin-2-yl)acetamide]
0.017 | CNC(=O)N1CC(=O)c2c([nH]c(-c3ccnc(NC(C)=O)c3)c2Nc2ccc(F)cc2)C1 [Example 313, 2-[2-(Acetylamino)pyridin-4-yl]-3-[(4-fluorophenyl)amino]-N-methyl-4-oxo-1,4,5,7-tetrahydro-6H-pyrrolo[2,3-c]pyridine-6-carboxamide]
0.008 | COC(=O)N1CC(=O)c2c([nH]c(-c3ccnc(NC(C)=O)c3)c2Nc2ccc(F)cc2)C1 [Example 314, Methyl 2-[2-(acetylamino)pyridin-4-yl]-3-[(4-fluorophenyl)amino]-4-oxo-1,4,5,7-tetrahydro-6H-pyrrolo[2,3-c]pyridine-6-carboxylate]
